Assay results: patent publication US20060263802A1 (priority 2003, published 2006)

How the values were obtained:
Type in all cases: binding
[1] = test system: human monoclonal antibody CR57
[2] = test system: human monoclonal antibody CR57; remark: listed apart in the source
[3] = test system: human monoclonal antibody CRJB
[4] = test system: human monoclonal antibody CRJA
[5] = test system: human monoclonal antibody CRJB; remark: listed apart in the source
[6] = test system: human monoclonal antibody CRJA; remark: listed apart in the source

Row | Sequence | Binding of CR57 to linear peptide (PEPSCAN-ELISA signal) [1] | Binding of CR57 (10 μg/ml) to looped/cyclic peptide (PEPSCAN-ELISA) [2] | Binding of CRJB to linear peptide (PEPSCAN-ELISA signal) [3] | Binding of CRJA to linear peptide (PEPSCAN-ELISA signal) [4] | Binding of CRJB (10 μg/ml) to looped/cyclic peptide (PEPSCAN-ELISA) [5] | Binding of CRJA (10 μg/ml) to looped/cyclic peptide (PEPSCAN-ELISA) [6] | Binding of CR57 (10 μg/ml) to looped/cyclic peptide (PEPSCAN-ELISA signal) [2] | Binding of CRJB (10 μg/ml) to looped/cyclic peptide (PEPSCAN-ELISA signal) [5] | Binding of CRJA (10 μg/ml) to looped/cyclic peptide (PEPSCAN-ELISA signal) [6] | Binding of human monoclonal antibody CR57 to linear peptide (PEPSCAN-ELISA signal) [1] | Binding of CR57 to looped/cyclic peptide (PEPSCAN-ELISA signal) [2] | Binding of human monoclonal antibody CRJB to linear peptide (PEPSCAN-ELISA signal) [3] | Binding of human monoclonal antibody CRJA to linear peptide (PEPSCAN-ELISA signal) [4] | Binding of CRJB to looped/cyclic peptide (PEPSCAN-ELISA signal) [5] | Binding of CRJA to looped/cyclic peptide (PEPSCAN-ELISA signal) [6]
1 | FNGIILGPDGNVLIP | 61 | 94 | 139 | 99 | 88 | 106 | – | – | – | – | – | – | – | – | –
2 | QQHMELLESSVIPLV | 103 | 141 | 134 | 100 | 92 | 94 | – | – | – | – | – | – | – | – | –
3 | PNNLVVEDEGCTNLS | 78 | – | 107 | 86 | – | – | 100 | 60 | 96 | – | – | – | – | – | –
4 | RKHFRPTPDACRAAY | 64 | – | 107 | 57 | – | – | 72 | 79 | 41 | – | – | – | – | – | –
5 | EGCTNLSGFSYMELK | 51 | – | 114 | 59 | – | – | 39 | 73 | 38 | – | – | – | – | – | –
6 | GVFFNGIILGPDGNV | 58 | 57 | 116 | 84 | 85 | 68 | – | – | – | – | – | – | – | – | –
7 | PDQLVNLHDFRSDEI | 35 | 70 | 106 | 43 | 73 | 46 | – | – | – | – | – | – | – | – | –
8 | LGLRLMDGTWVAMQT | 102 | 92 | 115 | 113 | 108 | 97 | – | – | – | – | – | – | – | – | –
9 | TGVVTEAENYTNFVG | 85 | – | 110 | 86 | – | – | 92 | 69 | 96 | – | – | – | – | – | –
10 | DERGLYKSLKGACKL | 90 | 152 | 119 | 76 | 123 | 85 | – | – | – | – | – | – | – | – | –
11 | MQTSNETKWCPPDQL | 104 | 138 | 132 | 112 | 33 | 74 | – | – | – | – | – | – | – | – | –
12 | DGDEAEDFVEVHLPD | – | – | – | – | – | – | – | – | – | 85 | 71 | 123 | 97 | 102 | 71
13 | KFPIYTILDKLGPWS | 71 | – | 97 | 65 | – | – | 72 | 64 | 43 | – | – | – | – | – | –
14 | HVNGVFFNGIILGPD | 97 | 97 | 123 | 108 | 92 | 105 | – | – | – | – | – | – | – | – | –
15 | KVGYILAIKMNGFTC | 78 | – | 118 | 83 | – | – | 96 | 64 | 71 | – | – | – | – | – | –
